Test results taken from patent US20240043395A1, “COMPOUNDS AND COMPOSITIONS AS MODULATORS OF TLR SIGNALING” (Neuropore Therapies, Inc., priority 2020, published 2024).

Key:
Format in all cases: cell-based
[1] = molecular target: T1, human TLR2 (Homo sapiens (Human), UniProt O60603); assay: HEK-Blue hTLR2 antagonism assay (SEAP reporter), agonist Pam2CSK4; details: HEK-Blue hTLR2 cells; Pam2CSK4 (TLR2/6 agonist) at approx. 3×EC50; 18 h; 8-point dilutions
Description: (§1) Synthetic diacylated lipoprotein (Pam2CSK4, TLR2/6 agonist) and synthetic triacylated lipoprotein (Pam3CSK4, TLR1/2 agonist) were obtained from InvivoGen and were dissolved in endotoxin-free water to a concentration 1 mg/mL, vortexed until complete solubilization, and stored in aliquots at −20° C. Prior to addition to cells, an aliquot of the dissolved ligand was vortexed shortly and then was diluted in medium to 25 ng/mL Pam2CSK4 or 1000 ng/mL Pam3CSK4.
(§2) Test compounds were solubilized fresh to 10-20 mM stocks in DMSO and sonicated for 5-10 minutes in a water bath sonicator. Serial dilutions were prepared in DMSO, and then diluted in medium. The final concentration of DMSO used in the assay was 1%.
(§3) HEK-Blue hTLR2 reporter cells (InvivoGen) are HEK-293 cells stably expressing both the human TLR2 gene and a secreted embryonic alkaline phosphatase (SEAP) reporter construct downstream of NFκB promotor sites. HEK-Blue hTLR2 reporters were cultured according to manufacturer's protocol using Dulbecco's Modified Eagle Medium (DMEM; Gibco) containing 1× GlutaMax (Gibco), 10% heat-inactivated Fetal Bovine Serum (Gibco), Pen-Strep (50 U/mL penicillin, 50 μg/mL streptomycin, Gibco), 100 μg/mL Normocin (InvivoGen), and the selective antibiotic, lx HEK-Blue Selection (InvivoGen). Quanti-Blue reagent (InvivoGen) for detection and quantification of secreted alkaline phosphatase was dissolved in 100 mL of endotoxin-free water, warmed to 37° C. for 30 minutes and then filtered using a 0.2 μm membrane.
(§4) On day 1, 50 μL of each test compound dilution in duplicates or a vehicle control was added to each well of a 96-well plate followed by addition of 150 μL of HEK-Blue hTLR2 cell suspension (1×10^5 cells/well) and incubated at 37° C./5% CO2 for 2 h. Next, 50 μL of an approximate 3×EC50 concentration of each agonist (Pam2CSK4 or Pam3CSK4) was added to the wells containing test compounds or the vehicle control. The plates were then incubated at 37° C./5% CO2 for 18 h. For each assay run, non-treated HEK-Blue hTLR2 cells were treated with serial dilutions of agonists to determine EC50 values for the respective run.
(§5) On day 2, secreted alkaline phosphatase (SEAP) activity was detected in cell culture supernatants. In brief, 20 μL was collected from each well and transferred to a 96-well plate. Next, 200 μL of Quanti-Blue detection reagent was added to each well. Plates were incubated at room temperature for 15 min and SEAP activity was assessed by spectrophotometer OD reading at 655 nm. […] IC50 values were calculated based on 8-point dilutions for each compound.

[2] = molecular target: T1, human TLR2; assay: HEK-Blue hTLR2 antagonism assay (SEAP reporter), agonist Pam3CSK4; details: HEK-Blue hTLR2 cells; Pam3CSK4 (TLR1/2 agonist) at approx. 3×EC50; 18 h; 8-point dilutions
Description: as §1, §2, §3, §4, §5

[3] = molecular target: human TLR9 (Homo sapiens (Human), UniProt Q9NR96); assay: HEK-Blue hTLR9 antagonism assay (SEAP reporter), agonist ODN 2006; details: HEK-Blue hTLR9 cells; ODN 2006 (TLR9 agonist) at approx. 3×EC50; 18 h; exact values 8-point, approximate (~ or <) 4-point dilutions; read-out: IC50 (μM) with ODN2006
Description: Synthetic ODNs (ODN 2006 (ODN 7909), class B CpG oligonucleotide, TLR9 agonist) was obtained from InvivoGen and was dissolved in endotoxin-free water to a concentration 500 μM, vortexed until complete solubilization, and stored in aliquots at −20° C. Prior to addition to cells, an aliquot of the dissolved ligand was vortexed shortly and then was diluted in medium to 50 μM.
as §2
as §3, with “hTLR9” for “hTLR2”, “TLR9” for “TLR2”, “hTLR9 cells” for “hTLR2 reporters”, “antibiotics, 10 μg/mL Blasticidin (InvivoGen), and 100 μg/mL Zeocin” for “antibiotic, lx HEK-Blue Selection”
as §4, with “hTLR9” for “hTLR2”, “TLR9 agonist, ODN 2006,” for “each agonist (Pam2CSK4 or Pam3CSK4)”, “vehicle-treated” for “non-treated”, “agonist” for “agonists”
On day 2, secreted alkaline phosphatase (SEAP) activity was detected in cell culture supernatants. In brief, 30 μL was collected from each well and transferred to a 96-well plate. Next, 200 μL of Quanti-Blue detection reagent was added to each well. Plates were incubated at 37° C. for 60 min. and SEAP activity was assessed by spectrophotometer OD reading at 655 nm. […] Exact IC50 values were calculated based on 8-point dilutions for each compound. Approximate IC50 values (˜ or <) were calculated based on 4-point dilutions for each compound.

Sequence of human TLR9 (Q9NR96 26-1032): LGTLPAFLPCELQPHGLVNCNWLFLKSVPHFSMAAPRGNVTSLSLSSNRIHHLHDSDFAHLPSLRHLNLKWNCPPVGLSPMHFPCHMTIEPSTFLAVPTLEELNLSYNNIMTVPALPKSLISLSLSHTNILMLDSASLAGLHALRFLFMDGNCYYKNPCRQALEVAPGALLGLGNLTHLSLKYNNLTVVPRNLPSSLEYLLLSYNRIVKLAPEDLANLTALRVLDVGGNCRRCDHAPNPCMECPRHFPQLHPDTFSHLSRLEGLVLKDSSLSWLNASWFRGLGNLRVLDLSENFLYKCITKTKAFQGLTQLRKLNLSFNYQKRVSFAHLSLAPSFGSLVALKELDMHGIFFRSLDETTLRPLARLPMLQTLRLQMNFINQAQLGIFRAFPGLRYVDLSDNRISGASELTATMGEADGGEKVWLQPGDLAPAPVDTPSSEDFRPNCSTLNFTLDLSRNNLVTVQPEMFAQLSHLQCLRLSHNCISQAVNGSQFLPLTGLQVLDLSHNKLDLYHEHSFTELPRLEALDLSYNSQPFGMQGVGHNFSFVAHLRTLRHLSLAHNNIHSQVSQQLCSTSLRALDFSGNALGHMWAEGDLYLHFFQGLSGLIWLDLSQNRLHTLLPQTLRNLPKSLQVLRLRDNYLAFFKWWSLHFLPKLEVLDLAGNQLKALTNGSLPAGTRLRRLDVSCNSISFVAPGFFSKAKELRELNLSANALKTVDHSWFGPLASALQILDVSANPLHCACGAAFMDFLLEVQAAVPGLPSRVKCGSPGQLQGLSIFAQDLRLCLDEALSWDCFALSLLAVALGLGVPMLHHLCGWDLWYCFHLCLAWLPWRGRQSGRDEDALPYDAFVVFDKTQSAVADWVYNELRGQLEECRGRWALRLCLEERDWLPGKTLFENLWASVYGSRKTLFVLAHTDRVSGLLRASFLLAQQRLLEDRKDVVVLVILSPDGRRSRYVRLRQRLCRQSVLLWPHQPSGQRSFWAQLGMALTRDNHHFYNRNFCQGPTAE
T1 sequence (O60603 21-784): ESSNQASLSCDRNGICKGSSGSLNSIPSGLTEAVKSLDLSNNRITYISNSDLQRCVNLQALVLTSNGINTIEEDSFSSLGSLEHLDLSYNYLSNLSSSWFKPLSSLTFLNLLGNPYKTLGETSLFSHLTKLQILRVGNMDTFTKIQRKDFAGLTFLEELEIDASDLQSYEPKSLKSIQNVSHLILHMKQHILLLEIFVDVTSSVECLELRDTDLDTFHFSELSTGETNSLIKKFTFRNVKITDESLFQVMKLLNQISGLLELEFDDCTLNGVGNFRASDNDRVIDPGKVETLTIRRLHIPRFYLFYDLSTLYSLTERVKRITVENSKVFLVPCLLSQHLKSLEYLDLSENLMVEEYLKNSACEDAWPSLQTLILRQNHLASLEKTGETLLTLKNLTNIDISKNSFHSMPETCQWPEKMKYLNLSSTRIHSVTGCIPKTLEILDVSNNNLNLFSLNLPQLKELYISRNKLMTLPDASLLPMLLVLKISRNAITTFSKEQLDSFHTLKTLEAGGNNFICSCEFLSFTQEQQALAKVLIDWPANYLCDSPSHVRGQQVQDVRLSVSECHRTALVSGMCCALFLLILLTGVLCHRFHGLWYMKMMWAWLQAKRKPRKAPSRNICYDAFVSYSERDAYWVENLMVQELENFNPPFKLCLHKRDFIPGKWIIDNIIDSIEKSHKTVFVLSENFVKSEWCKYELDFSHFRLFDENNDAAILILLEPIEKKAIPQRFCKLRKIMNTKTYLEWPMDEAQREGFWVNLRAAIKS

| Structure (SMILES) | IC50 [1] | IC50 [2] | IC50 [3] |
| --- | --- | --- | --- |
| O=Cc1cc(C(=O)Nc2cnc(N3CCCCC3)s2)cc(F)c1O [Compound 7, 3-fluoro-5-formyl-4-hydroxy-N-(2-(piperidin-1-yl)thiazol-5-yl)benzamide] | > 100 µM | > 100 µM | > 33 µM |
| O=Cc1cc(C(=O)NCCCc2ccc(N3CCCC3)cc2)cc(F)c1O [Compound 144, 3-fluoro-5-formyl-4-hydroxy-N-(3-(4-(pyrrolidin-1-yl)phenyl)propyl)benzamide] | 9.3 µM | 5.3 µM |  |
| O=Cc1cc(C(=O)NNc2cccc(Br)c2)cc(F)c1O [Compound 160, N′-(3-bromophenyl)-3-fluoro-5-formyl-4-hydroxybenzohydrazide] | 38.4 µM | 26.5 µM |  |
| O=Cc1cc(-c2nc(-c3ccc(N4CCCC4)cc3)ns2)cc(F)c1OC(=O)OC1CCOC1 (stereo not shown) [Compound 162, 2-fluoro-6-formyl-4-(3-(4-(pyrrolidin-1-yl)phenyl)-1,2,4-thiadiazol-5-yl)phenyl tetrahydrofuran-3-yl carbonate] | 11.5 µM | 4.3 µM |  |
| O=Cc1cc(C(=O)Nc2cnc(-c3ccnc(N4CCCC4)c3)s2)cc(F)c1O [Compound 168, 3-fluoro-5-formyl-4-hydroxy-N-(2-(2-(pyrrolidin-1-yl)pyridin-4-yl)thiazol-5-yl)benzamide] | 15.8 µM | 9.6 µM |  |
| O=Cc1cc(-c2nc(-c3ccc(N4CC(F)(F)C4)cc3)ns2)cc(F)c1O [Compound 169, 5-(3-(4-(3,3-difluoroazetidin-1-yl)phenyl)-1,2,4-thiadiazol-5-yl)-3-fluoro-2-hydroxybenzaldehyde] | 2.5 µM | 1.3 µM |  |
| NS(=O)(=O)c1ccc(-c2nsc(-c3cc(F)c(O)c(C=O)c3)n2)cc1 [Compound 170, 4-(5-(3-fluoro-5-formyl-4-hydroxyphenyl)-1,2,4-thiadiazol-3-yl)benzenesulfonamide] | 17.7 µM | 5.36 µM |  |
| CN(C)C(=O)Oc1c(F)cc(-c2nc(-c3ccc(N4CCCC4)cc3)ns2)cc1C=O [Compound 173, 2-fluoro-6-formyl-4-(3-(4-(pyrrolidin-1-yl)phenyl)-1,2,4-thiadiazol-5-yl)phenyl dimethylcarbamate] | 0.9 µM | 0.5 µM |  |
| CN1CCN(C(=O)Oc2c(F)cc(-c3nc(-c4ccc(N5CCCC5)cc4)ns3)cc2C=O)CC1 [Compound 175, 2-fluoro-6-formyl-4-(3-(4-(pyrrolidin-1-yl)phenyl)-1,2,4-thiadiazol-5-yl)phenyl 4-methylpiperazine-1-carboxylate] | 1.2 µM | 0.3 µM |  |
| CN1C(=O)Oc2c(F)cc(-c3nc(-c4ccc(N5CCCC5)cc4)ns3)cc2C1O (stereo not shown) [Compound 178, 8-fluoro-4-hydroxy-3-methyl-6-(3-(4-(pyrrolidin-1-yl)phenyl)-1,2,4-thiadiazol-5-yl)-3,4-dihydro-2H-benzo[e][1,3]oxazin-2-one] | 1.2 µM | 0.43 µM |  |

Second part, the molecule after the results:

| IC50 [1] | IC50 [2] | IC50 [3] | Structure (SMILES) |
| --- | --- | --- | --- |
| 6.7 µM | 2.2 µM | ~0.5 µM | O=Cc1cc(C(=O)Nc2nnc(-c3ccccc3)s2)cc(F)c1O [Compound 2, 3-fluoro-5-formyl-4-hydroxy-N-(5-phenyl-1,3,4-thiadiazol-2-yl)benzamide] |
| 0.9 µM | 0.5 µM | 0.2 µM | O=Cc1cc(C(=O)Nc2ncc(-c3ccccc3)s2)cc(F)c1O [Compound 4, 3-fluoro-5-formyl-4-hydroxy-N-(5-phenylthiazol-2-yl)benzamide] |
| 1.6 µM | 0.9 µM | ~1 µM | O=Cc1cc(NC(=O)c2ncc(-c3ccccc3)s2)cc(F)c1O [Compound 10, N-(3-fluoro-5-formyl-4-hydroxyphenyl)-5-phenylthiazole-2-carboxamide] |
| 5.9 µM | 2.25 µM |  | CN(C(=O)c1cc(F)c(O)c(C=O)c1)C12CC(c3ccccc3)(C1)C2 [Compound 158, 3-fluoro-5-formyl-4-hydroxy-N-methyl-N-(3-phenylbicyclo[1.1.1]pentan-1-yl)benzamide] |
| 9.29 µM | 4.39 µM |  | O=Cc1cc(COC(=O)Nc2cccc(N3CCCC3)c2)cc(F)c1O [Compound 159, 3-fluoro-5-formyl-4-hydroxybenzyl (3-(pyrrolidin-1-yl)phenyl)carbamate] |
| 2.52 µM | 1.03 µM |  | O/N=C\c1cc(-c2nc(-c3ccc(N4CCCC4)cc3)ns2)cc(F)c1O [Compound 171, 3-fluoro-2-hydroxy-5-(3-(4-(pyrrolidin-1-yl)phenyl)-1,2,4-thiadiazol-5-yl)benzaldehyde oxime] |
| 1 µM | 0.5 µM |  | O=Cc1cc(-c2nc(-c3ccc(N4CCCC4)cc3)ns2)cc(F)c1OC(=O)N1CCCC1 [Compound 172, 2-fluoro-6-formyl-4-(3-(4-(pyrrolidin-1-yl)phenyl)-1,2,4-thiadiazol-5-yl)phenyl pyrrolidine-1-carboxylate] |
| 1.5 µM | 0.6 µM |  | O=Cc1cc(-c2nc(-c3ccc(N4CCCC4)cc3)ns2)cc(F)c1OC(=O)N1CCOCC1 [Compound 174, 2-fluoro-6-formyl-4-(3-(4-(pyrrolidin-1-yl)phenyl)-1,2,4-thiadiazol-5-yl)phenyl morpholine-4-carboxylate] |
| 2 µM | 0.6 µM |  | COCCOCC(=O)Oc1c(F)cc(-c2nc(-c3ccc(N4CCCC4)cc3)ns2)cc1C=O [Compound 176, 2-fluoro-6-formyl-4-(3-(4-(pyrrolidin-1-yl)phenyl)-1,2,4-thiadiazol-5-yl)phenyl 2-(2-methoxyethoxy)acetate] |
| 1.6 µM | 0.6 µM |  | C[n+]1ccccc1Oc1c(F)cc(-c2nc(-c3ccc(N4CCCC4)cc3)ns2)cc1C=O [Compound 177, 2-(2-fluoro-6-formyl-4-(3-(4-(pyrrolidin-1-yl)phenyl)-1,2,4-thiadiazol-5-yl)phenoxy)-1-methylpyridinium iodide] |
| 0.8 µM | 0.2 µM |  | COCCN1C(=O)Oc2c(F)cc(-c3nc(-c4ccc(N5CCCC5)cc4)ns3)cc2C1O (stereo not shown) [Compound 179, 8-fluoro-4-hydroxy-3-(2-methoxyethyl)-6-(3-(4-(pyrrolidin-1-yl)phenyl)-1,2,4-thiadiazol-5-yl)-3,4-dihydro-2H-benzo[e][1,3]oxazin-2-one] |
